Some results are limits rather than exact numbers.

Data set [1] concerns polyclonal antibodies against ERM (anti-ERM antibody). Briefly: Competitive indirect ELISA with anti-eremomycin antibody and heterologous VCM coating conjugates. It counts as binding, rabbit. The following applies: for IC50: cross-reactivity study, eremomycin antibody-based ELISA for vancomycin (coating BSA-VCM×50f); for CR (cross-reactivity): relative to vancomycin = 100%, eremomycin antibody-based ELISA (coating BSA-VCM×50f). On the procedure:
The coating conjugates were adsorbed in 96-well plates from solutions (0.05–1.5 µg/mL) in 0.1 mL CBB. After overnight incubation at 4 °C, the plates were washed three times with PBST to remove unbound reagent. Serial dilutions of antibodies in 0.1 mL 1% BSA-PBST were combined with standard (0, 0.01–10,000 ng/mL) in 0.1 mL PBST and incubated for 1 h at 25 °C. Following the washing procedure, the bound antibody was then detected using the GAR-HRP (1 h, 37 °C) in 0.1 mL of 1% BSA-PBS and subsequently washed out. The enzymatic activity was determined by the addition of TMB substrate (0.1 mL) to the wells, followed by the addition of 0.1 mL of 1 M sulfuric acid 30 min later, which terminated the reaction. The absorbance of the colored reaction product was read at 450 nm using a LisaScan spectrophotometer (Erba Mannheim, Karásek, Czech Republic).
The maximum optical output signal (100%) at zero concentration of VCM was referred to as B0. The decrease in the signal caused by each antibiotic concentration was expressed as the B/B0 ratio and was used to construct standard curves using a four-parameter logistic fitting in GraphPad Prism 8.0 software. The VCM half-inhibitory concentration (IC50) served as the sensitivity value for the comparison of assay variants and the cross-reactivity of analogs.
The checkerboard titration was employed to identify the optimal ratio of coating antigen to antibody, with concentrations taken in a serial fashion.
In general terms: ELISA stands for enzyme-linked immunosorbent assay.

Data set [2] can be described thus: HPLC-MS/MS re-analysis of frozen VCM-spiked human serum (accuracy, stability). The following applies: one week, several freeze/thaw cycles. On the procedure:
The same samples spiked with VCM were frozen and analyzed by HPLC-MS/MS one week later.
Frozen serum samples were thawed prior to analysis and assayed for VCM concentration by ELISA and LC-MS/MS in parallel. The procedure and sample preparation for LC-MS/MS analysis are detailed in the Supplementary File.
An aliquot (10 μL) of the analyte working solution and an aliquot (10 μL) of the IS working solution (1000 ng/ml) were added to an aliquot (100 μL) of serum. After vortexing the sample, 400 μL of cooled (4 °C) water contacting 15% trifluoroacetic acid was added for precipitation, and the sample was mixed well and centrifuged (2750 × g, 15 min, 4 °C). An aliquot (20 μL) of the supernatant was transferred to a test plate containing 230 μL ACN/H2O (10/90) solution for further UPLC-MS/MS analysis (Table S2). Calibration was constructed as a function of VCM concentrations versus corresponding peak area values (Figure S2).
Table S2. Calibration of spiked human serum samples using HPLC-MS/MS (n=4) […]
Figure S2. Calibration of spiked human serum samples using HPLC-MS/MS
Table S3. Recovery from spiked human serum samples using HPLC-MS/MS (N=6) […]
(1 picture or pasted object on this page, not shown here)

The conditions of data set [3]: cited from earlier work.

`CC[C@H]1OC(=O)[C@H](C)[C@@H](O[C@H]2C[C@@](C)(OC)[C@@H](O)[C@H](C)O2)[C@H](C)[C@@H](O[C@@H]2O[C@H](C)C[C@H](N(C)C)[C@H]2O)[C@](C)(O)C[C@@H](C)CN(C)[C@H](C)[C@@H](O)[C@]1(C)O` [Azithromycin]: in data set [1], the IC50 is >10,000 ng/mL and the “CR (cross-reactivity)” value is given as less than 0.3%.

Take `CN(C)c1cc(NC(=O)CNC(C)(C)C)c(O)c2c1C[C@H]1C[C@H]3[C@H](N(C)C)C(O)=C(C(N)=O)C(=O)[C@@]3(O)C(O)=C1C2=O` [Tigecycline]: in data set [1], the half-maximal inhibitory concentration (IC50) was >10,000 ng/mL and the “CR (cross-reactivity)” value is listed as less than 0.3%.

In the case of Polymyxin B, in data set [1], the IC50 is reported as >10,000 ng/mL and the “CR (cross-reactivity)” value was less than 0.3%.

Regarding `C[C@@H](O)[C@H]1C(=O)N2C(C(=O)O)=C(S[C@@H]3CN[C@H](C(=O)N(C)C)C3)[C@H](C)[C@H]12` [Meropenem], in data set [1], the half-inhibitory concentration (IC50) is given as >10,000 ng/mL and the “CR (cross-reactivity)” value is reported as less than 0.3%.

`CC(=O)NC[C@H]1CN(c2ccc(N3CCOCC3)c(F)c2)C(=O)O1` [Linezolid]: in data set [1], the IC50 is >10,000 ng/mL and the “CR (cross-reactivity)” value was less than 0.3%.

On to Colistin, for which, in data set [1], the 50% inhibitory concentration (IC50) is listed as >10,000 ng/mL and the “CR (cross-reactivity)” value is on record as less than 0.3%.

Take `NCC[C@H](O)C(=O)N[C@@H]1C[C@H](N)[C@@H](O[C@H]2O[C@H](CN)[C@@H](O)[C@H](O)[C@H]2O)[C@H](O)[C@H]1O[C@H]1O[C@H](CO)[C@@H](O)[C@H](N)[C@H]1O` [Amikacin]: in data set [1], the IC50 is recorded as >10,000 ng/mL and the “CR (cross-reactivity)” value is listed as less than 0.3%.

Turning to Teicoplanin, in data set [1], the IC50 is >10,000 ng/mL. The “CR (cross-reactivity)” value in data set [1] and in data set [1] (listed as teicoplanin) was less than 0.3% throughout.

As to `CN[C@H](CC(C)C)C(=O)N[C@H]1C(=O)N[C@@H](CC(N)=O)C(=O)N[C@H]2C(=O)N[C@H]3C(=O)N[C@H](C(=O)N[C@H](C(=O)O)c4cc(O)cc(O)c4-c4cc3ccc4O)[C@H](O)c3ccc(c(Cl)c3)Oc3cc2cc(c3O[C@@H]2O[C@H](CO)[C@@H](O)[C@H](O)[C@H]2O[C@H]2C[C@](C)(N)[C@H](O)[C@H](C)O2)Oc2ccc(cc2Cl)[C@H]1O` [Vancomycin], in data set [2], the “stability in human serum” value is recorded as “stability of the analyte in human serum”. Further, in data set [3], the “recommended Ctrough range” value is 15 to 20 mg/L.

With Eremomycin, in data set [1], the IC50 was 33.0 ng/mL and the “CR (cross-reactivity)” value is 104%.

For `CNC(C)C1CCC(N)C(OC2C(N)CC(N)C(OC3OCC(C)(O)C(NC)C3O)C2O)O1` (centres unmarked) [Gentamicin], in data set [1], the IC50 is on record as >10,000 ng/mL and the “CR (cross-reactivity)” value is reported as less than 0.3%.

Broadly, the IC50 is the concentration at which inhibition is half-maximal.

(Values after publication PMC11672653 (Antibiotics, 2024).)
